In this experiment the test system is durch CCl4 induzierte Leberfibrose in Ratten. As to the kind of experiment: Effect of prolyl hydroxylase inhibitors on CCl4-induced liver fibrosis in rats: serum bilirubin, bile acids, gamma GT. Type of experiment: in vivo. As to conditions: rat serum, 20 mg/kg total daily oral dose; for Bile acids / Bilirubin / Gamma GT: CCl4 then compound, mean ± standard deviation; for Bile acids: prozentuale Verbesserung gegenüber einer ausschließlichen CCl4-Behandlung / Bilirubin: prozentuale Verbesserung gegenüber einer ausschließlichen CCl4-Behandlung / Gamma GT: prozentuale Verbesserung gegenüber einer ausschließlichen CCl4-Behandlung: value in brackets. An excerpt: Um die effiziente Inhibitierung der Prolin-hydroxylase und der Lysin-hydroxylase durch die Verbindungen gemäß der Erfindung zu zeigen, werden die Konzentrationen von Bilirubin, Bile-Säuren und Gamma GT im Serum von • a) unbehandelten Ratten (Kontrolle), • b) mit CCl₄ behandelten Ratten, • c) Ratten, denen zuerst CCl₄ und anschließend eine Verbindung gemäß der Erfindung gegeben wurden, gemessen. (Die Methode ist beschrieben von Rouiller, C., Experimental toxic injury of the liver; in The Liver, C. Rouiller, Vol. 2, Seiten 335-476, New York, Academic Press 1964).
Die Ergebnisse sind in Tabelle 1 zusammengefaßt.

In the case of `COCCNC(=O)c1cc[n+]([O-])c(C(=O)NCCOC)c1` [Beispiel 1, Pyridin-2,4-dicarbonsäure-di-N,N'-(2-methoxyethyl)amid-N-oxid], the Bile acids turned out to be 97 ± 76, the Bilirubin is 6,30 ± 5,4 µm, the “Gamma GT” value is reported as 4,3 ± 3,1 U/L and the “Bile acids: prozentuale Verbesserung gegenüber einer ausschließlichen CCl4-Behandlung” value is 0%. Further, the “Bilirubin: prozentuale Verbesserung gegenüber einer ausschließlichen CCl4-Behandlung” value is on record as 0% and the “Gamma GT: prozentuale Verbesserung gegenüber einer ausschließlichen CCl4-Behandlung” value is recorded as 27%.

Turning to `COCCCNC(=O)c1cc[n+]([O-])c(C(=O)NCCCOC)c1` [Beispiel 2, Pyridin-2,4-dicarbonsäure-di-N,N'-(3-methoxypropyl)amid-N-oxid], the Bile acids amounted to 71 ± 42, the Bilirubin is reported as 2,90 ± 0,94 µm, the “Gamma GT” value is listed as 3,3 ± 2,2 U/L and the “Bile acids: prozentuale Verbesserung gegenüber einer ausschließlichen CCl4-Behandlung” value is 18%. Further, the “Bilirubin: prozentuale Verbesserung gegenüber einer ausschließlichen CCl4-Behandlung” value stood at 65% and the “Gamma GT: prozentuale Verbesserung gegenüber einer ausschließlichen CCl4-Behandlung” value was 59%.

Values taken from patent EP0463592A1, “2,4- and 2,5-substituted pyridine-N-oxides, processes for their preparation and for their utilization” (HOECHST AKTIENGESELLSCHAFT, priority 1990, dated 1992).
